Values after ≈ are worked out from the molar mass of the structure shown. Bridge positions count the residues as written; N and C are the ends. Square brackets hold non-standard residues; d marks the D form. Peptide text beside a SMILES is read from it. * marks the point of attachment. Myristoyl = CCCCCCCCCCCCCC(=O)*; Orn = NCCC[C@H](N)C(=O)O; Dab = NCC[C@H](N)C(=O)O; Dap = NC[C@H](N)C(=O)O
What was measured:
[1] = tested on: S. aureus USA300 MprFT345A; test: MIC against daptomycin-resistant mutant; assay type: cell-based
Description: All MIC assays were performed two independent times (n = 2) in 96‐well plates using a broth micro‐dilution method. The lowest concentration of that inhibited visible microbial growth was recorded as the MIC value.
For most of bacterial strains, overnight cultures were diluted 5000‐fold in LB broth. For E. faecium and S. aureus, overnight cultures were diluted 1000‐ and 10000‐fold in LB broth, respectively. 100 µL of diluted cells was mixed with 100 µL of LB broth containing each peptide ranging from 64 to 0.125 µg mL^−1 at 2‐fold serial dilutions.
Overnight cultures S. aureus USA300 were diluted 10000‐fold in LB broth, and 100 µL of dilute cell suspension was added to 96‐well plates containing 100 µL serially diluted aquicidine C4, telomycin, and daptomycin (with 15 mM CaCl2). Overnight cultures K. pneumoniae CRKP5452 were diluted 5000‐fold in LB broth, and 100 µL of dilute cell suspension was added to 96‐well plates containing 100 µL serially diluted aquicidine L and colistin. After an incubation of 24 h at 37 °C, the MIC value was determined. […] The MIC value was recorded as described above, and the process was repeated daily for 21 days. Experiments were performed two independent times (n = 2).
Single‐nucleotide polymorphisms (SNPs) for telomycin‐, daptomycin‐ or colistin‐resistant mutants were identified using SNIPPY by mapping DNBSEQ‐seq reads to the reference genome of S. aureus USA300 or K. pneumoniae CRKP5452.

[2] = tested on: methicillin-resistant S. aureus USA300; test: Mouse peritonitis-sepsis model; assay type: in vivo; details: S. aureus USA300, ICR mice, single s.c. dose 1 h after infection, doses 50, 100, 150 mg kg^−1, n = 5
Description: (§1) Six‐week‐old female ICR mice were used in all experiments and housed in a temperature‐controlled room (25 °C) with 12‐h light/dark cycle and 30% relative humidity. Mice were observed twice daily for mortality and morbidity. Abnormal clinical signs were recorded if observed and totally monitored for five days. The detailed methods for the mouse peritonitis‐sepsis model were as follows.
Methicillin‐resistant S. aureus USA300 was cultured in LB broth at 37 °C for 16 h and diluted with 7% type II porcine stomach mucin with 0.2 mM FeNH4‐citrate. S. aureus cell cultures were diluted to provide a challenge inoculum of 2.5 × 10^8 CFU in 0.5 mL and then administered into each mouse via intraperitoneal injection. 25 mice were randomly grouped into five per cohort (n = 5) and each cohort was given a single dose of either vehicle (20% solutol), aquicidine C4 at 50, 100, or 150 mg kg^−1, and vancomycin at 50 mg kg^−1 1 hr after infection via subcutaneous injection.

[3] = tested on: Shigella Castellani LXX; test: MIC assay (broth micro-dilution); assay type: cell-based; details: Table S11; LB broth, 37 °C, 16 h, n = 2
In short: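 Growth inhibition read visually; MIC taken as lowest inhibitory concentration. LB medium; inocula from overnight cultures diluted 5000-fold, S. aureus 10000-fold. Peptide range 64 to 0.125 µg mL^−1 (2-fold, pre-mix), two independent determinations.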

[4] = tested on: E. coli DH5α; test: Membrane component feeding assay; assay type: cell-based; details: feeding 2 to 128 µg mL^−1, E. coli DH5α, Figure 5e
Description: The effects of bacterial membrane components on aquicidine L's or aquicidine C4's anti‐bacterial activities were evaluated using E. coli DH5α or S. aureus USA300. […] All experiments were done in triplicate (n = 3) and repeated two independent times (n = 2).

[5] = tested on: meropenem-resistant A. baumannii 1104008; test: Mouse peritonitis-sepsis model; assay type: in vivo; details: A. baumannii 1104008, neutropenic ICR mice, s.c. 1 h after infection and every 12 h up to 36 h, doses 12.5, 25, 50 mg kg^−1, n = 5
Description: as §1
(§2) Meropenem‐resistant A. baumannii 1104008 or K. pneumoniae CRKP 5452 was cultured in LB broth at 37 °C fro 16 h and diluted with 5% type II porcine stomach mucin and 0.9% NaCl. All mice were rendered […] via intraperitoneal injection of cyclophosphamide at 150 mg/kg on day‐4 and day‐1 before infection. A. baumannii or K. pneumoniae cell cultures were diluted to provide a challenge inoculum of 5.0 × 10^7 CFU in 0.5 mL and then administered into each mouse via intraperitoneal injection. 25 mice were randomly grouped into five per cohort (n = 5) and each cohort was given a single dose of either vehicle (20% solutol), aquicidine L at 12.5, 25, or 50 mg kg^−1, and colistin at 12.5 mg kg^−1 1 h after infection via subcutaneous injection and repeated every 12 h up to 36 h (totally four injections).

[6] = tested on: meropenem-resistant K. pneumoniae CRKP 5452; test: Mouse peritonitis-sepsis model; assay type: in vivo; details: K. pneumoniae CRKP5452, neutropenic ICR mice, s.c. 1 h after infection and every 12 h up to 36 h, doses 12.5, 25, 50 mg kg^−1, n = 5
Description: as §1, §2

[7] = tested on: E. coli

Compound | antibacterial activity (MIC) S. aureus USA300 MprFT345A ([1]; Figure S127b, daptomycin-resistant mutant) [µg/mL] | increase in MIC against resistant mutant compared to wild type ([1]; S. aureus USA300 MprF^T345A vs wild type) [fold] | minimal dose required for 100% survival [2] [mg/kg] | MIC Shigella Castellani LXX [3] [µg/mL] | inhibition of antibacterial activity by LPS and PE [4] | minimal dose required for 100% survival [5] [mg/kg] | minimal dose required for 100% survival [6] [mg/kg] | resistant mutants by direct plating [7]
CCCCCCCCCCCCCC(=O)N[C@@H](CN)C(=O)N[C@H](C(=O)N[C@@H](CC(C)C)C(=O)N[C@H]1COC(=O)[C@H](Cc2ccccc2)NC(=O)[C@H](CC(N)=O)NC(=O)[C@H](CCCN)NC(=O)[C@H]([C@@H](C)CC)NC(=O)[C@H](Cc2ccccc2)NC(=O)[C@H](CN)NC(=O)[C@H](CCN)NC1=O)[C@@H](C)O [synAQU5-C4] (Myristoyl-[Dap]TLS[Dab][Dap]FI[Orn]NF; ester 4-C) | 16 | 4 | 100 | – | – | – | – | –
CCCCCCCCCCCCCC(=O)N[C@@H](CN)C(=O)N[C@H](C(=O)N[C@@H](CC(C)C)C(=O)N[C@@H](CO)C(=O)N[C@@H](CCN)C(=O)N[C@@H](CN)C(=O)N[C@@H](Cc1ccccc1)C(=O)N[C@H](C(=O)N[C@@H](CCCN)C(=O)N[C@@H](CC(N)=O)C(=O)N[C@@H](Cc1ccccc1)C(=O)O)[C@@H](C)CC)[C@@H](C)O [synAQU5-L] (Myristoyl-[Dap]TLS[Dab][Dap]FI[Orn]NF-OH) | – | – | – | 8 (≈ 5.56 µM) | stronger dose‐dependent inhibition | 50 | 50 | failed to identify E. coli resistant mutants

Source: paper PMC12677607, “Identification of a Pair of Linear or Cyclic Naturally Inspired Bifunctional Lipopeptide Antibiotics That Overcome Antimicrobial Resistance” (Advanced Science, 2025)
